Reference: patent publication US7151093B2, “Use of sphingosine 1-phosphate as active ingredient for the treatment of pulmonary fibrosis” (Ono Pharmaceutical Co., Ltd., priority 1999, dated 2006)

Test system: Bleomycin-induced Lung Injury Model Animal
Experiment: Bleomycin-induced lung injury model, lung tissue hydroxyproline content
Type: in vivo, ICR male mice
Protocol: Production of Bleomycin-induced Lung Injury Model Animal:
Using each of ICR male mice and under pentobarbital (60 mg/kg, i.v.) anesthesia, the cervical region was shaved and the skin was incised for about 4 mm from under the larynx region along the median line. Next, the muscle layer covering upper trachea was peeled off to expose the trachea. Using a micro-syringe, physiological saline or bleomycin hydrochloride (0.03 mg/animal, manufactured by Nippon Kayaku) was administered tracheally (50 μl/animal) from the tracheal smooth muscle region between cricoid cartilage. After the administration, the incised region was closed and antibiotics were administered into the thigh intramuscularly in order to prevent infection. S1P (10 mg/5 ml/kg, 0.5% aqueous solution of carboxymethylcellulose sodium (CMC.Na)-physiological saline, manufactured by Matreya) was intraperitoneally administered once a day for 14 days after the bleomycin induction. […]
The hydrolyzed supernatant (25 μl) was mixed with borate-alanine buffer (2.475 ml) separately prepared, and potassium chloride (solid) was added thereto until it was saturated. […] The absorbance of each sample was immediately measured at 560 nm, and the amount of hydroxyproline in the sample was calculated from a calibration curve.
The inhibition ratio was calculated by the following equation. […]

CCCCCCCCCCCCC/C=C/[C@H](O)[C@H](N)COP(=O)(O)O (stereo in doubt) [S1P, sphingosine 1-phosphate]
Inhibition ratio: suppression of bleomycin-induced increase of hydroxyproline content ([{(C−B)−(S−B)}÷(C−B)]×100, S1P 10 mg/kg i.p. once a day for 14 days, ICR male mice): ca. 90%
Hydroxyproline content (bleomycin-induced (0.03 mg/animal, tracheal) ICR male mice, S1P 10 mg/5 ml/kg i.p. once a day for 14 days, lung excised fifteen days after induction): 227.8 ± 17.5 μg/lung
